Series [1] relates to Proteasome. The series is described as follows: Inhibition of trypsin like activity of the proteasome purified from lymphoblastoid cell lines (in vitro). Type of series: subcellular.
Series [2] is described as follows: Half-life in human plasma by incubation at […]. It counts as ADME, cell-free.
Series [3] deals with Proteasome. Kind of series: Inhibition of post-acidic-like (PGPH) activity of the proteasome purified from lymphoblastoid cell lines (in vitro).
A short description of series [4]: Half-life in culture medium (RPMI) in the presence of 10% foetal calf serum by incubation at […]. It counts as ADME. Particulars: cattle, culture medium (RPMI) with 10% foetal calf serum.
Series [5] deals with Proteasome. The series is described as follows: Inhibition of chymotrypsin like activity of the proteasome purified from lymphoblastoid cell lines (in vitro). It counts as subcellular.
Series [6] deals with Proteasome. The series is described as follows: Inhibition of trypsin like activity of the proteasome in colon carcinoma cell lines HCT116. Type of series: subcellular.
The test system of series [7] is Proteasome. The series is described as follows: Inhibition of trypsin like activity of the proteasome in colon carcinoma cell lines COO115. It counts as subcellular.

Among the data in ChEMBL document CHEMBL1140347, “Peptidyl vinyl ester derivatives: new class of selective inhibitors of proteasome trypsin-like activity” (J Med Chem, 2005) are IC50 and half-life values, retold here.

Take `CCOC(=O)/C=C/[C@H](CC(C)C)NC(=O)[C@H](CO)NC(=O)[C@@H](NC(=O)C1=CCCN(C(=O)OC(C)(C)C)C1)C(C)C`: the results for the IC50 in the series with Proteasome [1], in the series on Proteasome [3] and in the series with Proteasome [5] were 110 nM, > 10000 nM and > 10000 nM, respectively. Further, the half-life in series [2] was 2.57 h; in series [4], > 6 h.
Regarding `CCOC(=O)/C=C/[C@H](CC(C)C)NC(=O)[C@H](CO)NC(=O)[C@@H](NC(=O)C1=CCCNC1)C(C)C`, the values for the IC50 in the series with Proteasome [1], in the series on Proteasome [3] and in the series with Proteasome [5] were 380 nM, > 10000 nM and 6540 nM, respectively. Moreover, the half-life in series [2] and in series [4] was > 6 h each time.
Regarding `CCOC(=O)/C=C/[C@H](CC(C)C)NC(=O)[C@H](CO)NC(=O)[C@@H](NC(=O)OCc1ccccc1)C(C)C`, the IC50 is 71 nM in the series with Proteasome [1], > 10000 nM in the series with Proteasome [3] and > 10000 nM with Proteasome [5]. The half-life in series [2] is 3.97 h; in series [4], > 6 h.
Regarding `CCOC(=O)/C=C/[C@H](CC(C)C)NC(=O)[C@H](CO)NC(=O)[C@@H](NC(=O)c1cccc(O)c1C)C(C)C`, the IC50 in the series with Proteasome [1] is 33 nM; in the series on Proteasome [3] it was > 10000 nM; in the series with Proteasome [6] it was 33 nM; with Proteasome [5], > 10000 nM. For the same compound, the half-life in series [2] and in series [4] was > 6 h throughout.
For `CCOC(=O)/C=C/[C@H](CC(C)C)NC(=O)[C@H](CC(C)C)NC(=O)[C@H](CC(C)C)NC(=O)C1=CCCN(C(=O)OC(C)(C)C)C1`, the half-maximal inhibitory concentration (IC50) with Proteasome [1] is 190 nM; in the series with Proteasome [3], > 10000 nM; in the series with Proteasome [5], 4360 nM. Further, the results for the half-life in series [2] and in series [4] were 3.3 h and > 6 h, respectively.
On to `CCOC(=O)/C=C/[C@H](CC(C)C)NC(=O)[C@H](CC(C)C)NC(=O)[C@H](CC(C)C)NC(=O)c1cccc(O)c1C`, for which the IC50 in the series on Proteasome [1] was 41 nM; in the series with Proteasome [3], > 10000 nM; in the series on Proteasome [7], 41 nM; in the series with Proteasome [5], 4210 nM. Also, the half-life in series [2] and in series [4] was > 6 h each time.
As for `CCOC(=O)/C=C/[C@H](CC(C)C)NC(=O)[C@H](CC(C)C)NC(=O)[C@H](CC(C)C)NC(=O)OCc1ccccc1`, the IC50 was 280 nM in the series on Proteasome [1], > 10000 nM with Proteasome [3] and 2450 nM in the series on Proteasome [5]. Further, the half-life in series [2] is 4.87 h; in series [4], > 6 h.
On to `CCOC(=O)/C=C/[C@H](CC(C)C)NC(=O)[C@H](CC(C)C)NC(=O)[C@H](CC(C)C)NC(=O)C1=CCCNC1`, for which the IC50 was 210 nM in the series on Proteasome [1], > 10000 nM in the series with Proteasome [3] and 860 nM with Proteasome [5]. The half-life in series [2] and in series [4] was > 6 h in each case.

One may read the IC50 as the midpoint of a concentration-inhibition curve. Read a high IC50 as lower potency. As usually defined, the half-life is the time needed for the level to fall by half in the phase considered.
